According to US5198564A, “Cis-platinum-diamine complexes and antitumorous compositions containing them, and process for their preparation” (Beijing Polytechnic University, priority 1987, dated 1993):

Tests used:
[1] = test system: L1210 mouse leukemia cells; test: Effect in prolonging the life of mouse with cancer (L1210), Test Example 1; format: in vivo, DBA/2 mice; conditions: i.p. once, 30 days observation
Experimental: To DBA/2 mice, L1210 mouse leukemia cells were inoculated into the abdominal cavity of each mouse used in the test. The test drugs were intraperitoneally administered once (e.g. after 24 hours of inoculation). […] The ratio (T/C %) of the survival time of a treated group (administered with a certain drug) to the survival time of a control group (administered with only physiological saline) was obtained and is shown in table VI with the average number of survival days for mice of the control group being evaluated as 100. The test drugs were aqueous suspensions obtained by adding small amounts of surfactants (e.g. tween-80) to the less soluble test compounds in water.

S180 sarcoma cells = test: Effect in prolonging the life of mouse with cancer (S180), Test Example 2; format: in vivo, DBA/2 mice; conditions: i.p. once, 30 days observation
Experimental: To DBA/2 mice, S180 sarcoma cells were intraperitoneally inoculated with approximately 1×10^6 cells/mouse. The test drugs were intraperitoneally administered once (e.g. after 24 hours of inoculation). […] The ratio (T/C %) of survival time of test and control animals was obtained and is shown in table V with the average number of survival days for mice of the control group to which a physiological saline was administered being evaluated as 100. The test drugs were aqueous suspensions obtained by adding small amount of surfactants (e.g. tween-80) to the less soluble test compounds in water.

[2] = water
[3] = test system: Sarcoma 180 and Leukemia L1210; conditions: reported in 1969; cited from earlier work
[4] = L1210 S180 printed, one value only, 8 mg/kg

## NCc1ccc(Cl)c(O)c1.NCc1ccc(Cl)c(O)c1.[I][Pt][I] [I 20]
[1]; L1210, 15 mg/kg
  T/C (%) of ST (ratio of survival time of test and control animals): > 212%
S180 sarcoma cells; 15 mg/kg
  T/C (%) of ST (ratio of survival time of test and control animals): > 227%

## NCc1ccccc1Br.NCc1ccccc1Br.[I][Pt][I]
[1]; L1210, 10 mg/kg
  T/C (%) of ST (ratio of survival time of test and control animals): > 175%
S180 sarcoma cells; 10 mg/kg
  T/C (%) of ST (ratio of survival time of test and control animals): > 180%

## NCc1ccccc1.NCc1ccccc1.[Cl][Pt][Cl]
[1]; [4]
  T/C (%) of ST (ratio of survival time of test and control animals): > 201%

## NCc1ccco1.NCc1ccco1.[Cl][Pt][Cl] [drawing 214]
[2]
  Solubility: 0.16 mg/mL

## NCc1ccc(Cl)cc1.NCc1ccc(Cl)cc1.[Cl][Pt][Cl] [drawing 204]
[2]
  Solubility: 0.01 mg/mL

## NCc1ccccc1CN.[I][Pt][I]
[2]
  Solubility: 0.01 mg/mL

## C[C@H](N)c1ccccc1.C[C@H](N)c1ccccc1.[Cl][Pt][Cl] [I 31]
[1]; L1210, 17.5 mg/kg
  T/C (%) of ST (ratio of survival time of test and control animals): > 260%
S180 sarcoma cells; 17.5 mg/kg
  T/C (%) of ST (ratio of survival time of test and control animals): > 245%

## NCc1ccc(C(=O)O)cc1.NCc1ccc(C(=O)O)cc1.[Cl][Pt][Cl] [drawing 212]
[2]
  Solubility: 2.2 mg/mL

## NCc1ccc(Cl)cc1.NCc1ccc(Cl)cc1.[I][Pt][I]
[1]; L1210, 10 mg/kg
  T/C (%) of ST (ratio of survival time of test and control animals): > 182%
S180 sarcoma cells; 10 mg/kg
  T/C (%) of ST (ratio of survival time of test and control animals): > 140%

## NCc1ccc(Br)cc1.NCc1ccc(Br)cc1.[Cl][Pt][Cl]
[1]; L1210, 12 mg/kg
  T/C (%) of ST (ratio of survival time of test and control animals): > 205%
S180 sarcoma cells; 12 mg/kg
  T/C (%) of ST (ratio of survival time of test and control animals): > 198%

## C[C@@H](N)c1ccccc1.C[C@@H](N)c1ccccc1.[I][Pt][I] [I 28]
[1]; L1210, 17.5 mg/kg
  T/C (%) of ST (ratio of survival time of test and control animals): > 220%
S180 sarcoma cells; 17.5 mg/kg
  T/C (%) of ST (ratio of survival time of test and control animals): > 215%

## N[C@@H]1COCO[C@@H]1c1ccccc1.N[C@@H]1COCO[C@@H]1c1ccccc1.[I][Pt][I]
[2]
  Solubility: 0.02 mg/mL

## NCc1ccc(C(=O)O)cc1.NCc1ccc(C(=O)O)cc1.[Cl][Pt][Cl] [I 37]
[1]; L1210, 10 mg/kg
  T/C (%) of ST (ratio of survival time of test and control animals): > 250%
S180 sarcoma cells; 10 mg/kg
  T/C (%) of ST (ratio of survival time of test and control animals): > 255%

## NCc1cc(C(=O)O)c(C(=O)O)cc1CN.[I][Pt][I]
[2]
  Solubility: 1.1 mg/mL

## N.N.O=C1[O][Pt][O]C(=O)C12CCC2 [reference compound]
[2]
  Solubility: 18.5 mg/mL

## NCc1ccc(O)cc1.NCc1ccc(O)cc1.[Cl][Pt][Cl]
[2]
  Solubility: 1.5 mg/mL

## NCc1ccc(Cl)cc1.NCc1ccc(Cl)cc1.O=C([O-])C1(C(=O)[O-])CCC1.[Pt+2] [V/7]
[1]; L1210, 10 mg/kg
  T/C (%) of ST (ratio of survival time of test and control animals): > 210%
S180 sarcoma cells; 10 mg/kg
  T/C (%) of ST (ratio of survival time of test and control animals): > 202%

## NCc1ccc(Cl)cc1.NCc1ccc(Cl)cc1.[Cl][Pt][Cl] [drawing 224]
[1]; L1210, 10 mg/kg
  T/C (%) of ST (ratio of survival time of test and control animals): > 197%
S180 sarcoma cells; 10 mg/kg
  T/C (%) of ST (ratio of survival time of test and control animals): > 140%

## NCc1ccc(C(=O)O)cc1.NCc1ccc(C(=O)O)cc1.[I][Pt][I] [I 36]
[1]; L1210, 10 mg/kg
  T/C (%) of ST (ratio of survival time of test and control animals): > 243%
S180 sarcoma cells; 10 mg/kg
  T/C (%) of ST (ratio of survival time of test and control animals): > 230%

## NCc1ccco1.NCc1ccco1.[Cl][Pt][Cl] [I 43]
[1]; L1210, 12 mg/kg
  T/C (%) of ST (ratio of survival time of test and control animals): > 225%
S180 sarcoma cells; 12 mg/kg
  T/C (%) of ST (ratio of survival time of test and control animals): > 230%

## NCc1ccc(Cl)c(O)c1.NCc1ccc(Cl)c(O)c1.[Cl][Pt][Cl] [I 21]
[1]; L1210, 15 mg/kg
  T/C (%) of ST (ratio of survival time of test and control animals): > 238%
S180 sarcoma cells; 15 mg/kg
  T/C (%) of ST (ratio of survival time of test and control animals): > 251%

## NCc1ccc(Cl)c(O)c1.NCc1ccc(Cl)c(O)c1.[I][Pt][I] [drawing 209]
[2]
  Solubility: 0.4 mg/mL

## C[C@H](N)c1ccccc1.C[C@H](N)c1ccccc1.[I][Pt][I] [I 30]
[1]; L1210, 17.5 mg/kg
  T/C (%) of ST (ratio of survival time of test and control animals): > 226%
S180 sarcoma cells; 17.5 mg/kg
  T/C (%) of ST (ratio of survival time of test and control animals): > 230%

## NCc1ccc(C(=O)O)cc1.NCc1ccc(C(=O)O)cc1.[I][Pt][I] [drawing 211]
[2]
  Solubility: 1.0 mg/mL

## N[C@@H]1COCO[C@@H]1c1ccccc1.N[C@@H]1COCO[C@@H]1c1ccccc1.[Cl][Pt][Cl]
[2]
  Solubility: 0.06 mg/mL

## NCc1ccc(CO)o1.NCc1ccc(CO)o1.[Cl][Pt][Cl] [drawing 216]
[2]
  Solubility: 1.1 mg/mL

## NCc1ccccc1CN.[Cl][Pt][Cl]
[2]
  Solubility: 0.02 mg/mL

## C[C@@H](N)c1ccccc1.C[C@@H](N)c1ccccc1.[Cl][Pt][Cl] [I 29]
[1]; L1210, 17.5 mg/kg
  T/C (%) of ST (ratio of survival time of test and control animals): > 246%
S180 sarcoma cells; 17.5 mg/kg
  T/C (%) of ST (ratio of survival time of test and control animals): > 250%

## NCc1ccco1.NCc1ccco1.[I][Pt][I] [drawing 213]
[2]
  Solubility: 0.06 mg/mL

## NCc1ccco1.NCc1ccco1.[I][Pt][I] [I 42]
[1]; L1210, 17.5 mg/kg
  T/C (%) of ST (ratio of survival time of test and control animals): > 200%
S180 sarcoma cells; 17.5 mg/kg
  T/C (%) of ST (ratio of survival time of test and control animals): > 200%

## NCc1ccc(Cl)c(O)c1.NCc1ccc(Cl)c(O)c1.[Cl][Pt][Cl] [drawing 210]
[2]
  Solubility: 0.9 mg/mL

## NCc1ccc(CO)o1.NCc1ccc(CO)o1.[Cl][Pt][Cl] [I 45]
[1]; L1210, 12 mg/kg
  T/C (%) of ST (ratio of survival time of test and control animals): > 226%
S180 sarcoma cells; 12 mg/kg
  T/C (%) of ST (ratio of survival time of test and control animals): > 218%

## N.N.[Cl][Pt][Cl] [PDD, Cis-platinum (II) diamine dichloride]
[3]
  anticancer activity: strong anticancer activity against Sarcoma 180 and Leukemia L1210

## NCc1ccccc1.NCc1ccccc1.[I][Pt][I]
[1]; [4]
  T/C (%) of ST (ratio of survival time of test and control animals): > 201%

## NCc1ccc(CO)o1.NCc1ccc(CO)o1.[I][Pt][I] [drawing 215]
[2]
  Solubility: 0.2 mg/mL

## NCc1ccc(Br)cc1.NCc1ccc(Br)cc1.[I][Pt][I]
[1]; L1210, 17.5 mg/kg
  T/C (%) of ST (ratio of survival time of test and control animals): > 150%
S180 sarcoma cells; 17.5 mg/kg
  T/C (%) of ST (ratio of survival time of test and control animals): > 158%

## NCc1ccc(O)cc1.NCc1ccc(O)cc1.[I][Pt][I]
[2]
  Solubility: 0.8 mg/mL

## NCc1ccc(F)cc1.NCc1ccc(F)cc1.[Cl][Pt][Cl] [I 12]
[1]; L1210, 13.5 mg/kg
  T/C (%) of ST (ratio of survival time of test and control animals): > 177%
S180 sarcoma cells; 13.5 mg/kg
  T/C (%) of ST (ratio of survival time of test and control animals): > 175%

## NCc1ccccc1Br.NCc1ccccc1Br.[Cl][Pt][Cl]
[1]; L1210, 10 mg/kg
  T/C (%) of ST (ratio of survival time of test and control animals): > 180%
S180 sarcoma cells; 10 mg/kg
  T/C (%) of ST (ratio of survival time of test and control animals): > 184%

## NCc1ccc(F)cc1.NCc1ccc(F)cc1.[I][Pt][I] [I 11]
[1]; L1210, 13.5 mg/kg
  T/C (%) of ST (ratio of survival time of test and control animals): > 161%
S180 sarcoma cells; 13.5 mg/kg
  T/C (%) of ST (ratio of survival time of test and control animals): > 184%

## NCc1ccc(CO)o1.NCc1ccc(CO)o1.[I][Pt][I] [I 44]
[1]; L1210, 17.5 mg/kg
  T/C (%) of ST (ratio of survival time of test and control animals): > 215%
S180 sarcoma cells; 17.5 mg/kg
  T/C (%) of ST (ratio of survival time of test and control animals): > 220%

## NCc1cc(C(=O)O)c(C(=O)O)cc1CN.[Cl][Pt][Cl]
[2]
  Solubility: 2.4 mg/mL
